Laboratory results taken from patent US7745619B2, “Vinca derivatives” (priority 2003, dated 2010).
Where two headings read alike, the source gives them in different places.

What was measured:
MCF-7 cells = assay: MCF-7 GI50 determination (crystal violet growth inhibition); assay type: cell-based, human; details: Homo sapiens, MCF7, 96 h
Procedure, shortened: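 MCF-7 cells seeded at 2×10^4 cells/well, grown 24 h drug-free, then exposed to 10-fold compound dilutions for 4 days. Glutaraldehyde-fixed cells stained with crystal violet, absorbance read at 570 nm; GI=100×(T/T0) against day-0 control OD, GI50 from growth inhibition versus concentration plots.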

HeLa S-3 cells = assay: HeLa GI50 determination (SRB growth inhibition); assay type: cell-based, human; details: Homo sapiens, HeLa S3, 48 h
Procedure, shortened: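 Cells plated at 2×10^4/well; day-0 plate TCA-fixed, test compounds added at 10-fold dilutions for 2 days. SRB staining, absorbance at 490 nm; GI = 100×(T−T0)/(C−T0), GI50 from growth inhibition vs. concentration plots.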

[1] = MCF-7 cells, 4 days of treatment, crystal violet, read-out: MCF-7 Cells GI50
[2] = HeLa S-3 cells, 2 days of treatment, sulforhodamine B, read-out: HeLa Cells GI50
[3] = read-out: MCF-7 Cells GI50 (nM)

Compound	GI50 (MCF-7 cells; [1]) [nM]	GI50 (HeLa S-3 cells; [2]) [nM]	GI50 (MCF-7 cells; [3]) [nM]	GI50 (HeLa S-3 cells; read-out: HeLa Cells GI50 (nM)) [nM]	melting point [°C]
CCCCC#Cc1ccc2[nH]c3c(c2c1)CCN1C[C@H](C[C@@](O)(CC)C1)C[C@]3(C(=O)OC)c1cc2c(cc1OC)N(C)[C@H]1[C@@](O)(C(=O)OC)[C@H](OC(C)=O)[C@]3(CC)C=CCN4CC[C@]21[C@@H]43 [Example 23, 12′-hexynylvinblastine]	50	40			
CC[C@]1(O)C[C@H]2CN(CCc3c([nH]c4ccc(SC)cc34)[C@@](C(=O)OC)(c3cc4c(cc3OC)N(C)[C@H]3[C@@](O)(C(=O)OC)[C@H](OC(C)=O)[C@]5(CC)C=CCN6CC[C@]43[C@@H]65)C2)C1 [Example 43, 12′-(methylsulfanyl) vinblastine]	2	0.6			
CC[C@]1(O)C[C@H]2CN(CCc3c([nH]c4ccc(C#CCN(C)C)cc34)[C@@](C(=O)OC)(c3cc4c(cc3OC)N(C)[C@H]3[C@@](O)(C(=O)OC)[C@H](OC(C)=O)[C@]5(CC)C=CCN6CC[C@]43[C@@H]65)C2)C1 [Example 24, 12′-(N,N-dimethylaminopropynyl)vinblastine]			400	300	
CC[C@]1(O)C[C@H]2CN(CCc3c([nH]c4ccc(SCc5ccccc5F)cc34)[C@@](C(=O)OC)(c3cc4c(cc3OC)N(C=O)[C@H]3[C@@](O)(C(=O)OC)[C@H](OC(C)=O)[C@]5(CC)C=CCN6CC[C@]43[C@@H]65)C2)C1 [Example 38]			200	100	
CC[C@]1(O)C[C@H]2CN(CCc3c([nH]c4ccc(SCCCCO)cc34)[C@@](C(=O)OC)(c3cc4c(cc3OC)N(C)[C@H]3[C@@](O)(C(=O)OC)[C@H](OC(C)=O)[C@]5(CC)C=CCN6CC[C@]43[C@@H]65)C2)C1 [Example 32, 12′-(4-hydroxybutylsulfanyl)vinblastine]			30	35	
CC[C@]1(O)C[C@H]2CN(CCc3c([nH]c4ccc(Nc5ccc(C(F)(F)F)cc5)cc34)[C@@](C(=O)OC)(c3cc4c(cc3OC)N(C)[C@H]3[C@@](O)(C(=O)OC)[C@H](OC(C)=O)[C@]5(CC)C=CCN6CC[C@]43[C@@H]65)C2)C1 [Example 84, 12′-(4-trifluoromethylphenylamino)vinblastine]			500	30	
CC[C@]1(O)C[C@H]2CN(CCc3c([nH]c4ccc(SSC(C)C)cc34)[C@@](C(=O)OC)(c3cc4c(cc3OC)N(C)[C@H]3[C@@](O)(C(=O)OC)[C@H](OC(C)=O)[C@]5(CC)C=CCN6CC[C@]43[C@@H]65)C2)C1 [Example 58, 12′-(isopropyldisulfanyl) vinblastine]			100	200	
CC[C@]1(O)C[C@H]2CN(CCc3c([nH]c4ccc(C(C)=O)cc34)[C@@](C(=O)OC)(c3cc4c(cc3OC)N(C)[C@H]3[C@@](O)(C(=O)OC)[C@H](OC(C)=O)[C@]5(CC)C=CCN6CC[C@]43[C@@H]65)C2)C1 [Example 70, 12′-acetylvinblastine]			100	200	
CC[C@]1(O)C[C@H]2CN(CCc3c([nH]c4ccc(C#N)cc34)[C@@](C(=O)OC)(c3cc4c(cc3OC)N(C)[C@H]3[C@@](O)(C(=O)OC)[C@H](OC(C)=O)[C@]5(CC)C=CCN6CC[C@]43[C@@H]65)C2)C1 [Example 65, 12′-cyanovinblastine]	3	3			
CC[C@]1(O)C[C@H]2CN(CCc3c([nH]c4ccc(Nc5ccccc5)cc34)[C@@](C(=O)OC)(c3cc4c(cc3OC)N(C)[C@H]3[C@@](O)(C(=O)OC)[C@H](OC(C)=O)[C@]5(CC)C=CCN6CC[C@]43[C@@H]65)C2)C1 [Example 82, 12′-(phenylamino) vinblastine]			600	300	
CCc1ccc2[nH]c3c(c2c1)CCN1C[C@H](C[C@@](O)(CC)C1)C[C@]3(C(=O)OC)c1cc2c(cc1OC)N(C)[C@H]1[C@@](O)(C(=O)OC)[C@H](OC(C)=O)[C@]3(CC)C=CCN4CC[C@]21[C@@H]43 [Example 77, 12′-ethylvinblastine]	0.6	0.3			
CC[C@]1(O)C[C@H]2CN(CCc3c([nH]c4ccc(S)cc34)[C@@](C(=O)OC)(c3cc4c(cc3OC)N(C)[C@H]3[C@@](O)(C(=O)OC)[C@H](OC(C)=O)[C@]5(CC)C=CCN6CC[C@]43[C@@H]65)C2)C1 [Example 53, 12′-thiovinblastine]	30	20			
CC[C@]1(O)C[C@H]2CN(CCc3c([nH]c4ccc(SCc5ccccc5Cl)cc34)[C@@](C(=O)OC)(c3cc4c(cc3OC)N(C=O)[C@H]3[C@@](O)(C(=O)OC)[C@H](OC(C)=O)[C@]5(CC)C=CCN6CC[C@]43[C@@H]65)C2)C1 [Example 37, 12′-(2-chlorobenzylsulfanyl)vinblastine]			200	100	168 to 170
CCCCCC(=O)c1ccc2[nH]c3c(c2c1)CCN1C[C@H](C[C@@](O)(CC)C1)C[C@]3(C(=O)OC)c1cc2c(cc1OC)N(C=O)[C@H]1[C@@](O)(C(=O)OC)[C@H](OC(C)=O)[C@]3(CC)C=CCN4CC[C@]21[C@@H]43 [Example 72, 12′-hexanoylvincristine]			50	40	
CC[C@]1(O)C[C@H]2CN(CCc3c([nH]c4cc(C)c(C)cc34)[C@@](C(=O)OC)(c3cc4c(cc3OC)N(C=O)[C@H]3[C@@](O)(C(=O)OC)[C@H](OC(C)=O)[C@]5(CC)C=CCN6CC[C@]43[C@@H]65)C2)C1 [Example 93, 12′,13′-dimethyl vincristine]			30	20	
CC#Cc1ccc2[nH]c3c(c2c1)CCN1C[C@H](C[C@@](O)(CC)C1)C[C@]3(C(=O)OC)c1cc2c(cc1OC)N(C)[C@H]1[C@@](O)(C(=O)OC)[C@H](OC(C)=O)[C@]3(CC)C=CCN4CC[C@]21[C@@H]43 [Example 18, 12′-propynylvinblastine]	300	300			
